{"source": "ChEMBL document CHEMBL1201862", "about": "“PubChem BioAssay data set” (2004)", "key": {"[1]": {"test_system": "HEK293", "test": "HEK293T cell cytotoxicity, dose response, cytotoxicity control, ATP luminescence, cherry-pick samples (AID 687005);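 also: cells exposed to compound for 48 hours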", "format": "functional, cell-based", "conditions": "Homo sapiens"}, "[2]": {"test": "HEK293 Cytotoxicity Assay Measured in Cell-Based System Using Plate Reader - 7071-01_Inhibitor_Dose_CherryPick_Activity_Set2.", "format": "functional"}, "[3]": {"target": "Nuclear receptor subfamily 5 group A member 2 (Homo sapiens, UniProt O00482)", "sequence (O00482 whole entry)": "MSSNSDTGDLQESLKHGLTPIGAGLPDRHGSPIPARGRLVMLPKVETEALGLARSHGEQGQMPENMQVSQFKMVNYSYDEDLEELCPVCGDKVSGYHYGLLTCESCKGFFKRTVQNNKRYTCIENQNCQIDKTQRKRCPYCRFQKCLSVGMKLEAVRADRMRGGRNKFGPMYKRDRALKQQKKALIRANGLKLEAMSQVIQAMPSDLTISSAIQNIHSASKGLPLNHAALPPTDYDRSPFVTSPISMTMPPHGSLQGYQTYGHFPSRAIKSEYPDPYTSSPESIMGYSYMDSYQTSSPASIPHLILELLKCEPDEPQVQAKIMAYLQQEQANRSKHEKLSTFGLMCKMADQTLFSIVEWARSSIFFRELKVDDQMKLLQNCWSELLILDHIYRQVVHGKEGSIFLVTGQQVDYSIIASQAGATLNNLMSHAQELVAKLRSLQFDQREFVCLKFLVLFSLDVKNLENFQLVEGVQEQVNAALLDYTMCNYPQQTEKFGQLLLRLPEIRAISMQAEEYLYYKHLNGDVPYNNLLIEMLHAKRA", "format": "functional, cell-based"}, "[4]": {"target": "Steroidogenic factor 1 (Homo sapiens, UniProt Q13285)", "sequence (Q13285 whole entry)": "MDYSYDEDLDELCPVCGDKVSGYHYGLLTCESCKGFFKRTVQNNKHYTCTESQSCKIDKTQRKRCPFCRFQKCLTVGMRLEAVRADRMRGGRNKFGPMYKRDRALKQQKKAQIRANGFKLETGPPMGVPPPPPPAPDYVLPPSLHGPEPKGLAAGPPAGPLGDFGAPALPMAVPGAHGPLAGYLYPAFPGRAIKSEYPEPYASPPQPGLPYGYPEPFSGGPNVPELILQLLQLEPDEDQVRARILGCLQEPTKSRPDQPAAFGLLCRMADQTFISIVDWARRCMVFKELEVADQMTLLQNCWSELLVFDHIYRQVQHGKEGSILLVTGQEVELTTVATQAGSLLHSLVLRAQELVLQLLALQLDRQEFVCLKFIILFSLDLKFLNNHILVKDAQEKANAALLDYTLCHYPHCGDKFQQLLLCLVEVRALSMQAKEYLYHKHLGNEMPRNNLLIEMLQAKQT", "test": "Counterscreen for inverse agonists of the liver receptor homolog-1 (LRH-1; NR5A2): Luminescence-based cell-based high throughput dose response assay to identify inverse agonists of the Steroidogenic Factor 1 Nuclear Receptor (SF1; NR5A1).", "format": "functional"}, "[5]": {"test": "StAR promoter reporter inhibition counter-screen, dose response, counter-screen for LRH-1 inverse agonist project, cell-based, luminescence, luciferase reporter (AID 651969)", "format": "functional"}, "[6]": {"test": "ARNT/TACC3 interaction disruptors, potency, confirmation, biochemical, AlphaScreen, cherry-picked samples (AID 651703);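 also: His-tagged ARNT PAS-B domain paired with GST-TACC3 E629A dimer coactivator fragment; potency of inhibitors that break up the complex and lower AlphaScreen signal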", "format": "functional, Homo sapiens"}, "[7]": {"test_system": "A549", "test": "A549 cell toxicity, dose response, cytotoxicity control, plate reader, cherry-pick samples (AID 687028)", "format": "functional, cell-based", "conditions": "Homo sapiens"}, "[8]": {"target": "Paired box protein Pax-8 (Homo sapiens, UniProt Q06710)", "sequence (Q06710 whole entry)": "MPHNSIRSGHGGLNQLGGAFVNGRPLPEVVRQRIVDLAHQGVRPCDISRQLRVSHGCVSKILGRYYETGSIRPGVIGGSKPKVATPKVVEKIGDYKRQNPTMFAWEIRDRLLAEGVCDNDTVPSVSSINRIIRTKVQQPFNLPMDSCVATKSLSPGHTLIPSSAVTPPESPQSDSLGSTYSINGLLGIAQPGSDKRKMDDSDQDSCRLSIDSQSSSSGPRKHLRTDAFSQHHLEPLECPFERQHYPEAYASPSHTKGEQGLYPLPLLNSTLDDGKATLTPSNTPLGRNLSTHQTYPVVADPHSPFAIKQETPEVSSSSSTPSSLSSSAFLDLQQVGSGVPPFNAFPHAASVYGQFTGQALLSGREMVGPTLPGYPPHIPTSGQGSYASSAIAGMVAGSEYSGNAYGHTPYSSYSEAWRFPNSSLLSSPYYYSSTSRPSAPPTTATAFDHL", "test": "inhibitors of PAX8-driven TPO luciferase reporter, dose response, RMG-I cells, cherry-pick (AID 687027)", "format": "functional, cell-based"}, "[9]": {"test": "PAX2 cell-based inhibition, dose response, selectivity assay for PAX8 inhibitor project, plate reader, dry powder samples (AID 743048);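 also: HEK293 cells carrying a WT1 promoter luciferase reporter driven by expressed Pax2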", "format": "functional"}, "[10]": {"test": "cytotoxicity in COV362 ovarian cancer cells, dose response, cytotoxicity control for PAX8 inhibitor project, cell-based, plate reader, dry powder, SA12 (AID 743144)", "format": "functional"}, "[11]": {"test": "NIH:OVCAR-3 ovarian cancer cell cytotoxicity, dose response, PAX8 inhibitor project, plate reader, dry powder samples (AID 743044)", "format": "functional, cell-based"}, "[12]": {"test": "PAX5 activity inhibitors, dose response, selectivity assay for PAX8 inhibitor project, cell-based, plate reader, dry powder samples (AID 743047)", "format": "functional"}, "[13]": {"test": "IGROV1 ovarian cancer cell cytotoxicity, dose response, PAX8 inhibitor project, plate reader, dry powder samples (AID 743043)", "format": "functional, cell-based", "conditions": "IGROV-1"}, "[14]": {"test": "cytotoxicity in OVCAR4 cells, dose response, cytotoxicity control for PAX8 inhibitor project, cell-based, plate reader, dry powder, SA11 (AID 743150)", "format": "functional", "conditions": "OVCAR-4"}, "[15]": {"test": "cytotoxicity in COV434 cells, dose response, cytotoxicity control for PAX8 inhibitor project, cell-based, plate reader, dry powder, SA7 (AID 743145)", "format": "functional"}, "[16]": {"test": "cytotoxicity in OV-90 ovarian cancer cells, dose response, PAX8 inhibitor project, cell-based, plate reader, dry powder, SA8 (AID 743149)", "format": "functional"}, "[17]": {"test": "cytotoxicity dependent on PAX8, dose response, cell-based, plate reader, dry powder (AID 743049)", "format": "functional"}, "[18]": {"test": "MITF Orthogonal Assay: SK-MEL-5 CTG Assay Measured in Cell-Based System Using Plate Reader - 2084-02_Inhibitor_Dose_DryPowder_Activity_Set7.", "format": "functional"}, "[19]": {"test": "MITF: Counter assay: A375 proliferation Measured in Cell-Based System Using Plate Reader - 2084-03_Inhibitor_Dose_DryPowder_Activity_Set8.", "format": "functional", "conditions": "A-375"}, "[20]": {"test": "TRPM1 promoter luciferase reporter signal decrease, dose response, MITF inhibitor project, cell-based, SK-MEL-5, dry powder, set 8 (AID 624430)", "format": "functional"}, "[21]": {"test": "A Cell-Based Confirmatory Screen for Compounds that Inhibit VEEV, TC-83 (7).", "format": "functional"}, "[22]": {"test": "NIH/3T3 fibroblast cytotoxicity, dose response, cytotoxicity control, cell-based, plate reader, dry powder, set 2 (AID 652280)", "format": "functional", "conditions": "NIH3T3"}, "[23]": {"test": "T. cruzi growth inhibition in host cells, dose response, cell-based, plate reader, dry powder, set 2 (AID 652275)", "format": "functional"}, "[24]": {"test": "P. falciparum Dd2 growth inhibitors, dose response, SYBR Green, cherry-picked samples (AID 1159567)", "format": "functional, cell-based"}, "[25]": {"target": "Endoplasmic reticulum aminopeptidase 1 (Homo sapiens, UniProt Q9NZ08)", "sequence (Q9NZ08 whole entry)": "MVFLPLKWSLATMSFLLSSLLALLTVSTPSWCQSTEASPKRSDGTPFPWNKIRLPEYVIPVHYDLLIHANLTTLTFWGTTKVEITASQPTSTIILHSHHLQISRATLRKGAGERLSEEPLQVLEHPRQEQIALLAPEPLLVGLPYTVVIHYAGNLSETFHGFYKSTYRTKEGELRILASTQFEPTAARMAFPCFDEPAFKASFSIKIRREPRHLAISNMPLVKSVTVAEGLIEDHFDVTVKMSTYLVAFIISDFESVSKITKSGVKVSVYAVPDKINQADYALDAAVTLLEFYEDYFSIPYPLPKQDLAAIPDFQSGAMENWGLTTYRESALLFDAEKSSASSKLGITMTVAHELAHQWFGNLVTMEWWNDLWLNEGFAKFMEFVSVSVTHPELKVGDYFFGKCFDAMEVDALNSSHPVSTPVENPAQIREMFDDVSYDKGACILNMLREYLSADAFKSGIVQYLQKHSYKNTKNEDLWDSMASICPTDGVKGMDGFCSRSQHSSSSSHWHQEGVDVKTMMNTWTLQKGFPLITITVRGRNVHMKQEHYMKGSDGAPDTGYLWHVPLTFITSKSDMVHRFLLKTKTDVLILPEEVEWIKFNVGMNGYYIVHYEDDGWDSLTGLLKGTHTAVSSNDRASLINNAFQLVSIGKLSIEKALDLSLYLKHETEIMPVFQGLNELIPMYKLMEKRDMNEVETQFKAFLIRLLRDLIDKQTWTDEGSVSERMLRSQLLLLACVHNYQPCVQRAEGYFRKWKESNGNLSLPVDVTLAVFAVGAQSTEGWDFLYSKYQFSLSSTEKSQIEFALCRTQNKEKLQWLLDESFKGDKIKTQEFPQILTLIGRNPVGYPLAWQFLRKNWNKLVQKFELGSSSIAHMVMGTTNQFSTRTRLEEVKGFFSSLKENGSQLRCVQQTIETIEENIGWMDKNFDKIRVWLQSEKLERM", "test": "ERAP1 aminopeptidase inhibitors, dose response, biochemical, cherry-pick, set 2, plate reader (AID 743314)"}}, "note": "Active and inactive are the calls of the source."}
{"smiles": "O=C(c1cccc(Br)c1)N1CCN(c2ccccn2)CC1", "values": [{"measurement": "AC50", "setting": "[1]", "result": "> 52 µM (inactive)"}, {"measurement": "AC50", "setting": "[2]", "result": "> 52 µM (inactive)"}]}
{"smiles": "CC(=O)Nc1cc(-c2ccc(F)cc2)cn2c(-c3ccc(S(C)(=O)=O)cc3)cnc12", "values": [{"measurement": "IC50", "setting": "[3]", "result": "8.66 µM (active)"}, {"measurement": "IC50", "setting": "[4]", "result": "3.15 µM (active)"}, {"measurement": "IC50", "setting": "[5]", "result": "21.3 µM (inactive)"}]}
{"smiles": "C[C@@H]1CN([C@H](C)CO)C(=O)c2cc(N(C)C)ccc2O[C@@H](C)CCCCO[C@@H]1CN(C)Cc1ccc2c(c1)OCO2", "values": [{"measurement": "AC50", "setting": "[6]", "result": "74.9 µM (active)"}]}
{"smiles": "C[C@@H]1CCCCO[C@H](CN(C)C(=O)Nc2ccc(C(F)(F)F)cc2)[C@H](C)CN([C@@H](C)CO)C(=O)c2cc(NS(=O)(=O)c3ccc(F)cc3)ccc2O1", "values": [{"measurement": "AC50", "setting": "[7]", "result": "28.1 µM (active)"}]}
{"smiles": "COc1ccc(S(=O)(=O)Nc2ccc3c(c2)C(=O)N([C@@H](C)CO)C[C@H](C)[C@H](CN(C)Cc2ccc(C(F)(F)F)cc2)OCCCC[C@H](C)O3)cc1", "values": [{"measurement": "AC50", "setting": "[8]", "result": "5.59 µM (active)"}, {"measurement": "AC50", "setting": "[9]", "result": "15.5 µM (active)"}, {"measurement": "AC50", "setting": "[10]", "result": "38.3 µM (active)"}, {"measurement": "AC50", "setting": "[11]", "result": "17.1 µM (active)"}, {"measurement": "AC50", "setting": "[12]", "result": "19.6 µM (active)"}, {"measurement": "AC50", "setting": "[13]", "result": "34.5 µM (active)"}, {"measurement": "AC50", "setting": "[14]", "result": "33.6 µM (active)"}, {"measurement": "AC50", "setting": "[15]", "result": "26.5 µM (active)"}, {"measurement": "AC50", "setting": "[16]", "result": "21.9 µM (active)"}, {"measurement": "AC50", "setting": "[17]", "result": "24.2 µM (active)"}]}
{"smiles": "CN1CCN(C2=C(Nc3ccc(Cl)c(Cl)c3)C(=O)c3ccccc3C2=O)CC1", "values": [{"measurement": "AC50", "setting": "[18]", "result": "7.66 µM (active)"}, {"measurement": "AC50", "setting": "[19]", "result": "27.9 µM (active)"}, {"measurement": "AC50", "setting": "[20]", "result": "6.64 µM (active)"}]}
{"smiles": "O=c1c2cc([N+](=O)[O-])ccc2nc(CN2CCCNC2)n1-c1ccccc1", "values": [{"measurement": "IC50", "setting": "[21]", "result": "1.13 µM (active)"}]}
{"smiles": "CN(C)CC#Cc1cccc(-c2nc(C(=O)N[C@@H]3CCN(Cc4ccccc4)C3)cc3c2[C@H](CCO)N([S+]([O-])C(C)(C)C)C3)c1", "note": "(stereo not given in full)", "values": [{"measurement": "AC50", "setting": "[22]", "result": "5.14 µM (active)"}, {"measurement": "AC50", "setting": "[23]", "result": "0.58 µM (active)"}, {"measurement": "AC50", "setting": "[24]", "result": "2.71 µM (active)"}]}
{"smiles": "CCCNC(=O)[C@H]1[C@H](CO)[C@H]2Cn3c(ccc(/C=C/c4ccccc4)c3=O)[C@H]2N1CCC", "values": [{"measurement": "AC50", "setting": "[25]", "result": "14.8 µM (active)"}]}
